In ChEMBL document CHEMBL1127988, “Differential binding and dopamine uptake activity of cocaine analogues modified at nitrogen” (Bioorg Med Chem Lett, 1994):

Tests used:
[1] = molecular target: Sodium-dependent dopamine transporter (Rattus norvegicus, UniProt P23977); assay: Binding affinity to inhibit [3H]mazindol binding in rat corpus striatum P2 synaptosomes; assay type: subcellular
Rattus norvegicus [2] = species on record: Rattus norvegicus; assay: Inhibitory activity towards [3H]dopamine uptake in rat corpus striatum P2 synaptosomes; assay type: functional
[3] = molecular target: Sodium-dependent dopamine transporter (Rattus norvegicus) (UniProt P23977); conditions: Corpus striatum; 1111 uM
Sodium-dependent dopamine transporter (Rattus norvegicus), sequence (P23977 whole entry): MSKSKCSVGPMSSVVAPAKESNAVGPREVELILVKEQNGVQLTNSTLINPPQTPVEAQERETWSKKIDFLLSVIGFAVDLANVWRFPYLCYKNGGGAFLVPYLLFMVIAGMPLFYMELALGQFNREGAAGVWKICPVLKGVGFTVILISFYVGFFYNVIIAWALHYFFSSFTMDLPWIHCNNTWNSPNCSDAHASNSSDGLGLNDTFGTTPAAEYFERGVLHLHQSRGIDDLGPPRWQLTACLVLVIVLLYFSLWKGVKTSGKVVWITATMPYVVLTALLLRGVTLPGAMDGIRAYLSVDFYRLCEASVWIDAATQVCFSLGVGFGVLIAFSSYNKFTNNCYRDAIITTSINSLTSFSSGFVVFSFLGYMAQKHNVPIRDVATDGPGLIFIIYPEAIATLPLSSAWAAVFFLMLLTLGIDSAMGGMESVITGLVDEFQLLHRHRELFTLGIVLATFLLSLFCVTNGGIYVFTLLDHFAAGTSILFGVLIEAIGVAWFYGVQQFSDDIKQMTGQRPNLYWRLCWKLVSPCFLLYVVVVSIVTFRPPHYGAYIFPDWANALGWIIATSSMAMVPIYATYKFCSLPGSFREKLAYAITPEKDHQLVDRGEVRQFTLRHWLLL
Description: Maximum percent inhibition of [3H]mazindol binding in rat corpus striatum P2 synaptosome at 1111 uM

Rattus norvegicus [4] = species on record: Rattus norvegicus; assay: Maximum percent inhibition of dopamine uptake in rat corpus striatum P2 synaptosome at 1000 uM; assay type: functional
[5] = molecular target: Sodium-dependent dopamine transporter (Rattus norvegicus) (UniProt P23977); assay: Maximum percent inhibition of [3H]mazindol binding in rat corpus striatum P2 synaptosome at 1000 uM; assay type: tissue-based

Sodium-dependent dopamine transporter, sequence (P23977 whole entry): as above

SMILES	Ki [1] [µM]	Ki (Rattus norvegicus [2]) [µM]	inhibition [3] [%]	inhibition (Rattus norvegicus [4]) [%]	inhibition [5] [%]
COC(=O)C1C(OC(=O)c2ccccc2)CC2CCC1N2[N+](=O)[O-] (centres undefined)	7.5	21.2	–	–	–
COC(=O)CN1C2CCC1C(C(=O)OC)C(OC(=O)c1ccccc1)C2 (centres undefined)	0.48	1.6	–	–	–
O=C(OC1CC2CCC3C1C(=O)NN23)c1ccccc1 (centres undefined)	44.9	115	83	–	–
COC(=O)C1C(OC(=O)c2ccccc2)CC2CCC1N2N=O (centres undefined)	99.5	232	–	77	82
COC(=O)C1C(OC(=O)c2ccccc2)CC2CCC1N2CCO (centres undefined)	0.7	1.6	–	–	–
COC(=O)C1C(OC(=O)c2ccccc2)CC2CCC1N2CC(=O)O (centres undefined)	0.38	2.1	–	–	–
COC(=O)C1C(OC(=O)c2ccccc2)CC2CCC1N2NC(C)=O (centres undefined)	> 1000	> 1000	–	41	42
